Test results published in US11524966B1 (Valo Early Discovery, Inc., priority 2017, dated 2022).

Molecular target: T1, USP25 (USP25-His6, Boston Biochem E-546) (Homo sapiens, UniProt Q9UHP3)
T1 construct: His6; purchased Boston Biochem E-546
T1 sequence (Q9UHP3 1-1055): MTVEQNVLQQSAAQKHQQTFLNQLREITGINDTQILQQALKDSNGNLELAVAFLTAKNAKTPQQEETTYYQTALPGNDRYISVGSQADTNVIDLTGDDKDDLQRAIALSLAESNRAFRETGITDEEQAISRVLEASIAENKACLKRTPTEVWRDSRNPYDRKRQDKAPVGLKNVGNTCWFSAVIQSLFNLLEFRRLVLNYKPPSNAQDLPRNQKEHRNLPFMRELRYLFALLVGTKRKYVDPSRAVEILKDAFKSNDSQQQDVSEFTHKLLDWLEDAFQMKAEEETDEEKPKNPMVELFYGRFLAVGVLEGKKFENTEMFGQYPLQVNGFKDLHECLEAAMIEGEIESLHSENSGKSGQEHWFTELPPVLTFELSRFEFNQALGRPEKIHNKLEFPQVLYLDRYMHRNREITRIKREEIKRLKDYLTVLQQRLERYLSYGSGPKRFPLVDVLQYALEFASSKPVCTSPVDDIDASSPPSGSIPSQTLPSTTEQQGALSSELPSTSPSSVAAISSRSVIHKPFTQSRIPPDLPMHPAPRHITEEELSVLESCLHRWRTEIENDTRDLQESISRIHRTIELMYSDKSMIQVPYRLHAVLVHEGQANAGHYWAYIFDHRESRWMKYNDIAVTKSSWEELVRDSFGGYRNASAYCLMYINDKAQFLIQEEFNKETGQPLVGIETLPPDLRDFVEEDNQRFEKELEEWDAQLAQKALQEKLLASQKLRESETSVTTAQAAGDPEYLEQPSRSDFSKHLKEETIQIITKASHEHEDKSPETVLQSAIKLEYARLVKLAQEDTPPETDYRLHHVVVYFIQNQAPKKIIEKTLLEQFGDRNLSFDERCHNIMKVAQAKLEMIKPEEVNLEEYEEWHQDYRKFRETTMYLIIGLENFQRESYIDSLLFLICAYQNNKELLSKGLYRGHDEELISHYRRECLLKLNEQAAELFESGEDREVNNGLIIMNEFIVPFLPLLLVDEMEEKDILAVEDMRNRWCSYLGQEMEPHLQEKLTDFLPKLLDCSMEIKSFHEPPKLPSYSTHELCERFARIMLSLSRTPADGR
Assay: Ubiquitin-Rhodamine 110 Assay for USP25 Activity, Example A-2
Assay type: biochemical
Conditions: Ub-Rh110 assay, Example A-2; read-out: USP25 A-2 IC50 range
Experimental: The assay was performed in a final volume of 9 μL in assay buffer containing 20 mM Tris-HCl (pH 8.0, (1M Tris-HCl, pH 8.0 solution; Corning 46-031-CM)), 3 mM BME (2-Mercaptoethanol; Sigma 63689-25ML-F), 0.03% BGG (0.22 μM filtered, Sigma, G7516-25G), and 0.01% Triton X-100 (Sigma, T9284-10L). Nanoliter quantities of 10-point, 3-fold serial dilution in DMSO was pre-dispensed into 1536 assay plates (Corning, #3724BC) for a final test concentration of 25 μM to 1.3 nM, top to lowest dose, respectively. Enzyme USP25, construct USP25-His6, (Boston Biochem E-546). Concentration and incubation times were optimized for the maximal signal-to-background while maintaining initial velocity conditions at a fixed substrate concentration. The final concentration of the enzyme in the assay was 75 pM. Final substrate (Ub-Rh110; Ubiquitin-Rhodamine 110, R&D Systems #U-555) concentration was 25 nM with [Ub-Rh110]<<Km. 3 μL of 2× enzyme was added to assay plates (pre-stamped with compound) preincubated with […] for 30 minutes and then 3 μL of 2×Ub-Rh110 was added to assay plates. Plates were incubated for 45 minutes at room temperature before addition of 3 μL of stop solution (final concentration of 10 mM citric acid (Sigma, 251275-500G)). Fluorescence was read on the Envision (Excitation at 485 nm and Emission at 535 nm; Perkin Elmer) or on the PheraSTAR (Excitation at 485 nm and Emission at 535 nm; BMG Labtech).
IC50 values were determined by curve fitting of the standard 4 parameter logistic fitting algorithm included in the Activity Base software package: IDBS XE Designer Model 205. Data is fitted using the Levenburg Marquardt algorithm.

| SMILES | IC50 [nM] |
| --- | --- |
| Cc1ccc2c(N)c(C(=O)N[C@@H]3COc4cc(N5CC6CC(C5)N6)ccc4C3)sc2n1 [Example 2-3, N-((3S)-7-(3,6-diazabicyclo[3.1.1]heptan-3-yl)chroman-3-yl)-3-amino-6-methylthieno[2,3-b]pyridine-2-carboxamide] | > 2000 |
| Cc1ccc2c(N)c(C(=O)N[C@H]3COc4cc(N5CCNCC5)ccc4C3)sc2n1 (single isomer, unassigned) [Example 1-1] | 200 to 2000 |
| Cc1nc2sc(C(=O)N[C@H]3COc4cc(N5CCNCC5)ccc4C3)c(N)c2cc1F (single isomer, unassigned) [Example 1-15] | 50 to 200 |
| Cc1ccc2c(N)c(C(=O)N[C@H]3COc4cc(N5CCNCC5)c(F)cc4C3)sc2n1 [Example 1-35, (R)-3-amino-N-(6-fluoro-7-(piperazin-1-yl)chroman-3-yl)-6-methylthieno[2,3-b]pyridine-2-carboxamide] | 200 to 2000 |
| Nc1c(C(=O)N[C@H]2COc3cc(N4CC5CC(C4)N5)ccc3C2)sc2nc(F)ccc12 [Example 2-14, N-((3R)-7-(3,6-diazabicyclo[3.1.1]heptan-3-yl)chroman-3-yl)-3-amino-6-fluorothieno[2,3-b]pyridine-2-carboxamide] | 200 to 2000 |
| Cc1ccc2c(N)c(C(=O)N[C@@H]3COc4cc(N5CCN[C@@H](C)[C@@H]5C)ccc4C3)sc2n1 (single isomer, unassigned) [Example 1-14] | 200 to 2000 |
| [2H]C([2H])([2H])O[C@H]1CN(c2ccc3c(c2)OC[C@H](NC(=O)c2sc4nc(C)ccc4c2N)C3)C[C@@H]1N [Example 2-38, 3-amino-N-((R)-7-((3S,4S)-3-amino-4-(methoxy-d3)pyrrolidin-1-yl)chroman-3-yl)-6-methylthieno[2,3-b]pyridine-2-carboxamide] | 200 to 2000 |
| Cc1ccc2c(N)c(C(=O)N[C@H]3COc4cc(N5CCN[C@@H](C)[C@@H]5C)ccc4C3)sc2n1 (single isomer, unassigned) [Example 1-13] | 200 to 2000 |
| Cc1cnc2c(N)c(C(=O)N[C@H]3COc4cc(N5CC6COCC(C5)N6)ccc4C3)sc2n1 [Example 2-12, N-((3R)-7-(3-oxa-7,9-diazabicyclo[3.3.1]nonan-7-yl)chroman-3-yl)-7-amino-3-methylthieno[2,3-b]pyrazine-6-carboxamide] | 200 to 2000 |
| Cc1ccc2c(N)c(C(=O)N[C@H]3COc4cc(N5CC6CCCC(C5)N6)ccc4C3)sc2n1 (single isomer, unassigned) [Example 1-5] | 1 to 50 |
| Cc1cc(C)c2c(N)c(C(=O)N[C@H]3COc4cc(N5CCNCC5)c(C#N)c(F)c4C3)sc2n1 [Example 2-32, (R)-3-amino-N-(6-cyano-5-fluoro-7-(piperazin-1-yl)chroman-3-yl)-4,6-dimethylthieno[2,3-b]pyridine-2-carboxamide] | 1 to 50 |
| Cc1cc(C(F)(F)F)c2c(N)c(C(=O)N[C@H]3COc4cc(N5CC6CC(C5)N6)ccc4C3)sc2n1 [Example 2-21] | 50 to 200 |
| Cc1cc(C(F)(F)F)c2c(N)c(C(=O)N[C@H]3COc4cc(N5CC6CNCC(C5)O6)ccc4C3)sc2n1 [Example 2-23, N-((3R)-7-(9-oxa-3,7-diazabicyclo[3.3.1]nonan-3-yl)chroman-3-yl)-3-amino-6-methyl-4-(trifluoromethyl)thieno[2,3-b]pyridine-2-carboxamide] | 1 to 50 |
| Cc1ccc2c(N)c(C(=O)N[C@H]3COc4cc(N5CCN[C@H](C)[C@H]5C)ccc4C3)sc2n1 (single isomer, unassigned) [Example 1-11] | 50 to 200 |
| Cc1nc2sc(C(=O)N[C@@H]3COc4cc(N5CCNCC5)ccc4C3)c(N)c2s1 [Example 1-26, (S)-6-amino-2-methyl-N-(7-(piperazin-1-yl)chroman-3-yl)thieno[2,3-d]thiazole-5-carboxamide] | > 2000 |
| Cc1ccc2c(N)c(C(=O)N[C@H]3COc4cc(N5CC6CNCC(C5)C6(F)F)c(C#N)cc4C3)sc2n1 [Example 2-33, 3-amino-N-((3R)-6-cyano-7-(9,9-difluoro-3,7-diazabicyclo[3.3.1]nonan-3-yl)chroman-3-yl)-6-methylthieno[2,3-b]pyridine-2-carboxamide] | 1 to 50 |
| Cc1ccc2c(N)c(C(=O)N[C@@H]3COc4cc(N5CCN[C@H](C)[C@@H]5C)ccc4C3)sc2n1 (single isomer, unassigned) [Example 1-10] | 200 to 2000 |
| Cc1ccc2c(N)c(C(=O)N[C@H]3COc4cc(N5CC6CC(C5)N6)ccc4C3)sc2n1 [Example 2-2, N-((3R)-7-(3,6-diazabicyclo[3.1.1]heptan-3-yl)chroman-3-yl)-3-amino-6-methylthieno[2,3-b]pyridine-2-carboxamide] | 50 to 200 |
| Cc1ccc2c(N)c(C(=O)N[C@H]3COc4cc(N5CCN[C@@H](C)C5)ccc4C3)sc2n1 [Example 2-8, 3-amino-6-methyl-N-((R)-7-((S)-3-methylpiperazin-1-yl)chroman-3-yl)thieno[2,3-b]pyridine-2-carboxamide] | 200 to 2000 |
| Cc1nc2sc(C(=O)N[C@@H]3COc4cc(N5CC6CCC(C5)N6)cc(F)c4C3)c(N)c2s1 (single isomer, unassigned) [Example 1-40] | > 2000 |
| CCn1ccc2cc(C(=O)N[C@@H]3COc4cc(N5CC6CCC(C5)N6)ccc4C3)cnc21 (single isomer, unassigned) [Example 1-27] | > 2000 |
| Cc1nc2sc(C(=O)N[C@H]3COc4cc(N5CC6CC(C5)N6)ccc4C3)c(N)c2s1 [Example 2-26, N-((3R)-7-(3,6-diazabicyclo[3.1.1]heptan-3-yl)chroman-3-yl)-6-amino-2-methylthieno[2,3-d]thiazole-5-carboxamide] | 200 to 2000 |
| Cc1nc2sc(C(=O)N[C@H]3COc4cc(N5CC6CCC(C5)N6)cc(F)c4C3)c(N)c2s1 (single isomer, unassigned) [Example 1-39] | 200 to 2000 |
| Cc1cc(C)c2c(N)c(C(=O)N[C@H]3COc4cc(N5CC6CC(C5)N6)ccc4C3)sc2n1 [Example 2-18, N-((3R)-7-(3,6-diazabicyclo[3.1.1]heptan-3-yl)chroman-3-yl)-3-amino-4,6-dimethylthieno[2,3-b]pyridine-2-carboxamide] | 50 to 200 |
| Cc1ccc2c(N)c(C(=O)N[C@H]3COc4cc(N5CCC[C@@](N)(C(F)(F)F)C5)ccc4C3)sc2n1 (single isomer, unassigned) [Example 3-3] | 50 to 200 |
| CO[C@@H]1CN(c2ccc3c(c2)OC[C@H](NC(=O)c2sc4nc(C)ccc4c2N)C3)C[C@H]1N (single isomer, unassigned) [Example 3-2] | 200 to 2000 |
| Cc1ccc2c(N)c(C(=O)N[C@H]3COc4cc(N5CCC[C@](N)(C(F)(F)F)C5)ccc4C3)sc2n1 (single isomer, unassigned) [Example 3-4] | 200 to 2000 |
| Cc1ccc2c(N)c(C(=O)N[C@@H]3COc4cc(N5CC6CC(C5)N6)cc(F)c4C3)sc2n1 (single isomer, unassigned) [Example 1-41] | 50 to 200 |
| Cc1ccc2c(N)c(C(=O)N[C@H]3COc4cc(N5CCNC[C@@H]5C)ccc4C3)sc2n1 [Example 2-4, 3-amino-6-methyl-N-((R)-7-((S)-2-methylpiperazin-1-yl)chroman-3-yl)thieno[2,3-b]pyridine-2-carboxamide] | 1 to 50 |
